{"source": "patent US20250025439A1", "about": "“DERIVATIVES OF NIFUROXAZIDE FOR USE IN THE TREATMENT OF MITOCHONDRIAL DISORDERS AND NEURODEGENERATIVE DISEASES” (priority 2021, published 2025)", "key": {"[1]": {"molecular_target": "T1, Pleckstrin homology-like domain family B member 2 (PHLDB2) (Homo sapiens, UniProt Q86SQ0)", "T1 construct": "Protein extracts from human fibroblasts were incubated with magnetic beads; endogenous in cells; host or cells: human fibroblast lysate", "T1 sequence (Q86SQ0 1-1253)": "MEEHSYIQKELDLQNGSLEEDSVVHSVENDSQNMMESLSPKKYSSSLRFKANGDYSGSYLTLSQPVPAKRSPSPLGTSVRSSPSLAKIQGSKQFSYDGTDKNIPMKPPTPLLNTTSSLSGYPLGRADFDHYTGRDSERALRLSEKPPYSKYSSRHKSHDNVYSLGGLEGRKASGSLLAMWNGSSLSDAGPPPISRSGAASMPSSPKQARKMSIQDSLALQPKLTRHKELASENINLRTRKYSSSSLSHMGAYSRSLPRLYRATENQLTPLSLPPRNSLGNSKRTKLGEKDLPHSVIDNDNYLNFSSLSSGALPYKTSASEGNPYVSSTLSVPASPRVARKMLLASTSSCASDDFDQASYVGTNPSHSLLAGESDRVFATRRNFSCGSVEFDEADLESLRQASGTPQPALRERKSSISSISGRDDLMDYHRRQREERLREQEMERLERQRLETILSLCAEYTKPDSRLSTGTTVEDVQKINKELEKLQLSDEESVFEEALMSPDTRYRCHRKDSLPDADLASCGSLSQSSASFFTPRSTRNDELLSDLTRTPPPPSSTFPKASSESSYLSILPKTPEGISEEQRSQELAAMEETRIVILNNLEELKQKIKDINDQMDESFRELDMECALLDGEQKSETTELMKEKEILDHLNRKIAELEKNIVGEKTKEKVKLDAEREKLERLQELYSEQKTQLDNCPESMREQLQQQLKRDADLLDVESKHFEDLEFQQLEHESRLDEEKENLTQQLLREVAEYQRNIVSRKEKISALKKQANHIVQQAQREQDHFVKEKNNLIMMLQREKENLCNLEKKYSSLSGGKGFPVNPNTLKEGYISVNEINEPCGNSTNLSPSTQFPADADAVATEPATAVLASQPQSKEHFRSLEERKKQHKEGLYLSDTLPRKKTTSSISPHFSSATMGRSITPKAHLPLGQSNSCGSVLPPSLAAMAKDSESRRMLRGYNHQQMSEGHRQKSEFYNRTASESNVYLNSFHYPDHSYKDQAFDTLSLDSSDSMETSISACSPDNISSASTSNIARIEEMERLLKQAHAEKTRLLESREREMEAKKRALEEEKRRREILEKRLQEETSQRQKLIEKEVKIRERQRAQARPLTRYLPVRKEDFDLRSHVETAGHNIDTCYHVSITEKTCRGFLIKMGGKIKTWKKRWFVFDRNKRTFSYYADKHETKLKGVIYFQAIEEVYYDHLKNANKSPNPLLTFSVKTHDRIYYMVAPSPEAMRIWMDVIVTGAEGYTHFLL", "experiment": "Affinity chromatography with NFX-beads and mass spectrometry", "format": "binding", "settings": "spectral counts, NFX coupled beads vs beads alone, human fibroblast extracts", "method": "(§1) Fibroblasts were trypsinized and washed with PBS 1× then incubated in lysis buffer on ice during 20 minutes (Lysis buffer: Tris-HCl pH 7.5 50 mM, EDTA 2 mM, Triton X-100 0.1% supplemented with anti-protease and anti-phosphatase (Complete-Mini™—Roche). After centrifugation 15 minutes, 13 000 rpm at 4° C., supernatant was conserved and the protein concentration was determined using the Pierce BCA assay kit (Thermo Fisher Scientific).\n(§2) 10 μL of magnetic beads and NFX-beads were washed three times in Bead buffer before to be resuspended 100 μL of Bead buffer (Bead buffer: Tris-HCl pH 7.5 50 mM, NaCl 150 mM, Triton X-100 0.1%, supplemented with anti-protease and anti-phosphatase (Complete-Mini™—Roche)) thanks to a magnetic rack (DynaMag-2 Ref 12321D Life Technologies). 800 μg of proteins were mixed with 100 μL of diluted beads and the final volume was set to 800 μL with Bead buffer. The proteins and the beads were incubated 30 minutes with rotation in a cold room. Using a magnetic rack, the beads were separated from the protein extract and washed three time with Bead buffer before to be resuspended in 75 μL of Laemmli2X. Laemmli with beads was put 5 minutes at 95° C. to eluate the proteins and the beads were discarded using a magnetic rack. 35 μL of the eluted proteins were subjected to SDS-PAGE and silver coloration (ProteoSilver™ Silver Stain Kit—Sigma Aldrich). Bands of interest were extracted from the gel and subjected to mass spectrometry.\n(§3) Mass spectrometric identification and quantification of the pulled down proteins were performed as previously described (Shrivastava et al., EMBO, 2019, 38:e99871). The raw data were cleaned using the following pathway. First, only the proteins found to interact with the NFX coupled beads in the three replicates were kept for further analysis. […] The final proteins were then classified based on the fold chance and the p-value.\n(§4) Identification of the NFX intracellular targets is a crucial step in understanding its mechanisms of action and to be able to improve its efficiency on a rational basis. To purify NFX-binding proteins, affinity chromatography purification was performed using magnetic beads. Protein extracts from human fibroblasts were incubated with magnetic beads alone or to which NFX has been covalently coupled (Scheme 1). Eluted fractions were subjected to SDS-PAGE electrophoresis and silver staining (FIG. 9A). The pattern was clearly different between eluted proteins from NFX-beads compared to those eluted form beads alone with 13 bands either appeared or were of a higher intensity with the NFX-beads (FIG. 9B). Excised bands were subjected to proteolytic digestion and mass spectrometry."}, "[2]": {"molecular_target": "T2, RNA-splicing ligase RtcB homolog (RTCB) (Homo sapiens, UniProt Q9Y3I0)", "T2 construct": "Protein extracts from human fibroblasts were incubated with magnetic beads; endogenous in cells; host or cells: human fibroblast lysate", "T2 sequence (Q9Y3I0 1-505)": "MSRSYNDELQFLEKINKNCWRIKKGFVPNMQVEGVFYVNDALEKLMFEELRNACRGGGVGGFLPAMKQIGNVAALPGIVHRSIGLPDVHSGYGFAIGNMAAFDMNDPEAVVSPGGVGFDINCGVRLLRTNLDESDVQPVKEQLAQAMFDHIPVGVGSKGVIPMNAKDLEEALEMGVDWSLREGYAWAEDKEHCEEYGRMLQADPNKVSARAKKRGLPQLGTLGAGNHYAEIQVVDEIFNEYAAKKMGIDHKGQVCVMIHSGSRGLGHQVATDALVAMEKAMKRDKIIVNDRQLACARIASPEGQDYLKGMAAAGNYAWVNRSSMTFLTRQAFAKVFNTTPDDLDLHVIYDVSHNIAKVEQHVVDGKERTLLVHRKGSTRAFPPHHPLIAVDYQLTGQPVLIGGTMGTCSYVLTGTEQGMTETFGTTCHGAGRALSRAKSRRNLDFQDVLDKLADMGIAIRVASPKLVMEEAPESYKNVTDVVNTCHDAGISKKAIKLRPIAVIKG", "experiment": "Affinity chromatography with NFX-beads and mass spectrometry", "format": "binding", "settings": "spectral counts, NFX coupled beads vs beads alone, human fibroblast extracts", "method": "as §1, §2, §3, §4"}}, "data": [{"smiles": "O=C(N/N=C/c1ccc([N+](=O)[O-])o1)c1ccc(O)cc1", "note": "[NFX, (E)-4-hydroxy-N′-((5-nitrofuran-2-yl)methylene)benzohydrazide]", "values": [{"measurement": "Fold change", "setting": "[1]", "value": 91.67}, {"measurement": "Fold change", "setting": "[2]", "value": 40.98}]}]}
